{"source": "patent US4330527A", "about": "“Wound treatment agent” (priority 1979, dated 1982)", "key": {"NPT [1]": {"system": "NPT", "format": "biochemical, Clostridium perfringens ATCC 21510"}, "[2]": {"system": "granulation tissue in P.V.H.-sponge", "design": "species or system rats (Wistar strain, male)", "conditions": "rat, in vivo"}, "NPT [3]": {"system": "NPT", "format": "biochemical, Clostridium perfringens ATCC 21510", "remark": "listed apart in the source"}, "5'-nucleotidase": {"system": "5'-nucleotidase", "experiment": "Effects of metal ions and other chemical agents on nucleotidase activity", "format": "biochemical"}, "epidermis (dorsal skin)": {"system": "epidermis (dorsal skin)", "experiment": "Experiment 9: epidermization effect on dermatome-peeled dorsal skin", "format": "in vivo, rabbit", "conditions": "further examination"}, "epidermis": {"system": "epidermis", "conditions": "literature; cited from earlier work"}, "[4]": {"system": "collagen in P.V.H.-sponge", "experiment": "Experiment 6: weight of collagen (hydroxyproline) in the buried sponge", "format": "in vivo, rats", "conditions": "for Hydroxyproline: n = 8; for Hydroxyproline, % of control: control = 100%"}}, "note": "Entries after “also recorded” stand apart in the source; their conditions may differ.", "data": [{"molecule": "3-phosphoglycerophosphate", "values": [{"measurement": "action as phosphate donor", "setting": "NPT [1]", "result": "not observed"}]}, {"molecule": "CC(=O)OCC(=O)[C@@]1(O)CC[C@H]2[C@@H]3CCC4=CC(=O)C=C[C@]4(C)[C@H]3[C@@H](O)C[C@@]21C", "note": "[Prednisolone acetate]", "values": [{"measurement": "(1) Wet weight", "setting": "[2]", "result": "225 ± 58.9", "unit": "mg"}, {"measurement": "(1)-(2) Liquid content", "setting": "[2]", "result": "167.4 ± 52.2", "unit": "mg"}, {"measurement": "(2) - sponge weight, Solid content", "setting": "[2]", "result": "22.6 ± 9.6", "unit": "mg"}, {"measurement": "(2) Dry weight", "setting": "[2]", "result": "57.8 ± 9.9", "unit": "mg"}, {"measurement": "Dry weight, %", "setting": "[2]", "result": 91.2, "unit": "%"}, {"measurement": "Liquid content, %", "setting": "[2]", "result": 68.4, "unit": "%"}, {"measurement": "Solid content, %", "setting": "[2]", "result": 80.7, "unit": "%"}, {"measurement": "Wet weight, %", "setting": "[2]", "result": 73.0, "unit": "%"}, {"measurement": "effect on weights / newly grown granulation tissue (in words)", "setting": "[2]", "result": "the dry weight, wet weight, quantity of exudate and weight of newly grown granulation tissue all fall below those with the control"}]}, {"molecule": "Nc1ncnc2c1ncn2[C@@H]1O[C@H](COP(=O)(O)OP(=O)(O)OP(=O)(O)O)[C@@H](O)[C@H]1O", "note": "[adenosine triphosphate]", "values": [{"measurement": "action as phosphate donor", "setting": "NPT [1]", "result": "not observed"}]}, {"molecule": "CN(CC(=O)O)C(=N)NP(=O)(O)O", "note": "[creatine phosphate]", "values": [{"measurement": "action as phosphate donor", "setting": "NPT [1]", "result": "not observed"}]}, {"molecule": "Nc1ccn([C@@H]2O[C@H](CO)[C@@H](O)[C@H]2O)c(=O)n1", "note": "[cytidine]", "values": [{"measurement": "action as phosphate acceptor", "setting": "NPT [1]", "result": "phosphate acceptor"}]}, {"molecule": "Nc1ncnc2c1ncn2[C@H]1C[C@H](O)[C@@H](COP(=O)(O)OP(=O)(O)OP(=O)(O)O)O1", "note": "[deoxyadenosine triphosphate]", "values": [{"measurement": "action as phosphate donor", "setting": "NPT [1]", "result": "not observed"}]}, {"molecule": "Nc1ccn([C@H]2C[C@H](O)[C@@H](CO)O2)c(=O)n1", "note": "[deoxycytidine]", "values": [{"measurement": "action as phosphate acceptor", "setting": "NPT [1]", "result": "phosphate acceptor"}]}, {"molecule": "O=c1ccn([C@H]2C[C@H](O)[C@@H](CO)O2)c(=O)[nH]1", "note": "[deoxyuridine]", "values": [{"measurement": "action as phosphate acceptor", "setting": "NPT [1]", "result": "phosphate acceptor"}]}, {"molecule": "O=P(O)(O)OC[C@H]1OC(O)[C@H](O)[C@@H](O)[C@@H]1O", "note": "(some centres unmarked) [glucose-6-phosphate]", "values": [{"measurement": "action as phosphate donor", "setting": "NPT [1]", "result": "not observed"}]}, {"molecule": "O=C(O)c1cc[c]([Hg][Cl])cc1", "note": "[p-chloromercuribenzoic acid]", "values": [{"measurement": "effect on NPT activity", "setting": "NPT [3]", "result": "neither of them are inhibited"}, {"measurement": "effect on nucleotidase activity", "setting": "5'-nucleotidase", "result": "neither of them are inhibited"}]}, {"molecule": "Cc1cn([C@H]2C[C@H](O)[C@@H](CO)O2)c(=O)[nH]c1=O", "note": "[thymidine]", "values": [{"measurement": "action as phosphate acceptor", "setting": "NPT [1]", "result": "phosphate acceptor"}]}, {"molecule": "O=c1ccn([C@@H]2O[C@H](CO)[C@@H](O)[C@H]2O)c(=O)[nH]1", "note": "[uridine]", "values": [{"measurement": "action as phosphate acceptor", "setting": "NPT [1]", "result": "lowest activity as the phosphate acceptor"}]}, {"molecule": "[O]=[Zn]", "note": "[zinc oxide]", "values": [{"measurement": "capability of epidermization (in words)", "setting": "epidermis (dorsal skin)", "result": "synergistic effect with GF-70 to stimulate the epidermization"}]}, {"molecule": "O=P(O)(O)OCC(O)CO", "note": "(stereo not drawn) [α-glycerophosphate]", "values": [{"measurement": "action as phosphate donor", "setting": "NPT [1]", "result": "not observed"}]}, {"molecule": "vitamin A", "values": [{"measurement": "effect on skin tissue / DNA synthesis in epidermis", "setting": "epidermis", "result": "stimulates synthesis of DNA in the epidermis; also recorded: affect the growth and differentiation of the skin tissue"}]}, {"molecule": "Albumin: egg albumin as the control (protein, UniProt P01012 2-386, looked up) Ovalbumin: GSIGAASMEFCFDVFKELKVHHANENIFYCPIAIMSALAMVYLGAKDSTRTQINKVVRFDKLPGFGDSIEAQCGTSVNVHSSLRDILNQITKPNDVYSFSLASRLYAEERYPILPEYLQCVKELYRGGLEPINFQTAADQARELINSWVESQTNGIIRNVLQPSSVDSQTAMVLVNAIVFKGLWEKAFKDEDTQAMPFRVTEQESKPVQMMYQIGLFRVASMASEKMKILELPFASGTMSMLVLLPDEVSGLEQLESIINFEKLTEWTSSNVMEERKIKVYLPRMKMEEKYNLTSVLMAMGITDVFSSSANLSGISSAESLKISQAVHAAHAEINEAGREVVGSAEAGVDAASVSEEFRADHPFLFCIKHIATNAVLFFGRCVSP", "values": [{"measurement": "weight of collagen (in words)", "setting": "[4]; 4th and 7th days, vs control", "result": "no significant difference"}, {"measurement": "Hydroxyproline", "setting": "[4]; 4 days after burying", "result": "132.3 ± 18.0", "unit": "μg/sponge"}, {"measurement": "Hydroxyproline, % of control", "setting": "[4]; 4 days after burying", "result": 105, "unit": "%"}, {"measurement": "Hydroxyproline", "setting": "[4]; 7 days after burying", "result": "331.7 ± 18.8", "unit": "μg/sponge"}, {"measurement": "Hydroxyproline, % of control", "setting": "[4]; 7 days after burying", "result": 146, "unit": "%"}]}]}
